Data on one molecule can be found in US20250195508A1, “COMPOUNDS AND COMPOSITIONS FOR ANITMALARIAL THERAPEUTIC AND PROPHYLACTIC USE” (UNIVERSITY OF CENTRAL FLORIDA RESEARCH FOUNDATION, INC., priority 2022, published 2025).

Some results are limits rather than exact numbers.

As a reminder, the IC50 is the concentration that gives 50% inhibition.

The target of test [1] is recombinant human EPHA2 (Homo sapiens (Human), UniProt P29317). Kind of test: Z′-LYTE FRET-based in vitro biochemical kinase assay. The conditions noted are these: recombinant human EPHA2 expressed in insect cells; read-out: Human EPHA2 IC50 (nM) ± SD. On the procedure:
Several analogs were synthesized based on the structure of TL5-135 for further study. […] For the data in Table 1, compounds were subjected to in vitro biochemical kinase assays done using recombinant human ephrin type-A receptor 2 (EPHA2) (expressed in insect cells) in a Z′-LYTE® FRET-based kinase assay. P. falciparum Dd2 EC50 was determined using the standard 72 hour SYBR Green I assay (Dd2 Proliferation Assay) as known in the art. […] The structures of compoundsTL5-134, TL5-139, and TL5-145 are shown below.
In vitro biochemical kinase assays were done using recombinant human EPHA2 (expressed in insect cells) in a Z′-LYTE® FRET-based kinase assay. P. falciparum Dd2 EC50 was determined using the standard 72 h SYBR Green I assay.

In test [2] the test system is P. falciparum Dd2. The test can be described thus: Rate of killing assay. The conditions noted are these: 10×EC50, 12-hour exposure then wash off. The class given is cell-based. On the procedure:
Asynchronous P. falciparum Dd2 cultures were plated at 1% parasitemia, 4% hematocrit into a 24-well plate, incubated at 37° C. in 5% CO2. Wells were treated with 10×EC50 of compound for 12, 24, or 48 hours before the compound was removed. Every 24 hours thereafter for 4 days total, culture samples were washed in 0.5% BSA and stained with 1×SYBR Green I and 60 μM MitoTracker Deep Red FM for 20 minutes at 37° C. After another wash in 0.5% BSA, samples were resuspended in PBS and analyzed via flow cytometry with a CytoFLEX S™, with 100,000 events recorded per sample. For gating, the following controls were used: uninfected RBCs, untreated culture, DHA-treated culture, and untreated culture without MitoTracker stain. Viable parasite percentage was determined by finding the fraction of SYBR Green/MitoTracker double positive cells from the total events. Analysis was performed with FlowJo software Version 10.
Asynchronous cultures of P. falciparum Dd2 parasites were treated with 10×EC50 of the indicated compound for 12 hours prior to compound wash off. Flow cytometry with SYBR Green I (nuclear dye) and Mitotracker Deep Red FM (mitochondria staining) was done after compound wash-off every 24 hours after for […] (100,000 events/sample) to track parasitemia (data from 3 biological replicates±SEM).

For test [3], the system named is P. falciparum strain Dd2. Kind of test: Stage specificity assay. Type of test: cell-based. Conditions: for Stage specific action, treated at early ring stage: 400 nM (5×EC50) at 6 hours post infection for 12 hours. How it is done:
Asexual stage P. falciparum cultures were synchronized by MACS magnetic column, followed 3 hours later by treatment with 5% sorbitol to select for rings. Six hours after invasion, parasites were plated onto a 96-well plate at 1% parasitemia and 1% hematocrit, maintained at 37° C. in 5% CO2, and compound was added at 5×EC50 to the 6 HPI wells. Every 12 hours, until reinvaded rings (54 HPI), thin blood smear slides for Giemsa-stain were taken, and samples were washed and fixed in 4% paraformaldehyde in PBS with 0.04% glutaraldehyde. At the conclusion of the timepoints, all samples were permeabilized with 0.25% Triton X-100 before being treated with 50 μg/mL RNase A and stained with 500 nM YOYO-1. Samples were then washed, and flow cytometric analysis was performed with a CytoFLEX S™, collecting 100,000 events per sample. Analysis was performed with FlowJo™ software Version 10.
The stage specific action of the prioritized hits was determined as follows. Synchronized cultures of P. falciparum strain Dd2 were exposed to 400 nM (5×EC50) compound at 6 hours post infection for 12 hours and fixed samples labeled with YOYO-1 dye were analyzed by flow cytometry and microscopy using Giemsa-stained thin smears.

recombinant human EPHA2, sequence (P29317 24-976): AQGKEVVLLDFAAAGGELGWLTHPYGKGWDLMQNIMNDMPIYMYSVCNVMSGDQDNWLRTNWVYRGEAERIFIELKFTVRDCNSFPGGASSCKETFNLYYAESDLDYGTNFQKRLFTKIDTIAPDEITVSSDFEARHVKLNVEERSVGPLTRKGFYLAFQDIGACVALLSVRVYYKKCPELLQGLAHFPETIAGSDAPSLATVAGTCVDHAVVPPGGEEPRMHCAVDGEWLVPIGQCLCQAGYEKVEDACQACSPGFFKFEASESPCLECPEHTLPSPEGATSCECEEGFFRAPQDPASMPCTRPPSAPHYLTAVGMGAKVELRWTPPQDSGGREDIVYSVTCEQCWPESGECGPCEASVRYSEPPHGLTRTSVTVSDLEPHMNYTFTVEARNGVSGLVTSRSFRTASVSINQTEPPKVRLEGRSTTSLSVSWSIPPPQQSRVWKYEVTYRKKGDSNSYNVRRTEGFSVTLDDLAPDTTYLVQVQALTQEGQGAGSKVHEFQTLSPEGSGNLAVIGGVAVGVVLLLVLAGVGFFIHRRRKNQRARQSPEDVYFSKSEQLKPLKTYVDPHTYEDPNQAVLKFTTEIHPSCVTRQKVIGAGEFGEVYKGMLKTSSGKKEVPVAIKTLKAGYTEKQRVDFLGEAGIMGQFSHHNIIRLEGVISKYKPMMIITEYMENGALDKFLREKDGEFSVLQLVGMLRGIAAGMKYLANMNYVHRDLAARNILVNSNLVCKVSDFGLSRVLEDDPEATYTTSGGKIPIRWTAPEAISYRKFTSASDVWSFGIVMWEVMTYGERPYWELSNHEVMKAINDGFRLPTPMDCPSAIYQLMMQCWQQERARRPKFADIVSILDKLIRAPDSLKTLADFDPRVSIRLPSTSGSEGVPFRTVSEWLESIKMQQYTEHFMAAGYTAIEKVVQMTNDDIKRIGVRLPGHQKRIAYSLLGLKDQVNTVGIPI

On to `CCN1CCN(Cc2ccc(NC(=O)c3cc(Cl)cc(NC(=O)c4cncc(-c5cccs5)c4)c3)cc2C(F)(F)F)CC1` [TL5-135], for which, in test [1], the concentration for half-maximal inhibition (IC50) was more than 10000 nM. The Killing profile entry in test [2] is “pronounced irreversible killing”; in test [2] (listed as TL-135), “exhibited a killing effect”. Further, the “Stage specific action, treated at early ring stage” value is “blocks ring to trophozoite maturation” in test [3] and “block ring to trophozoite maturation” in test [3] (listed as TL-135). In addition, the “Stage specific action, added at trophozoite and schizont stages” value in test [3] (data not shown) was “blocks maturation of asexual parasites”.
